Measured values from ChEMBL document CHEMBL1153944, “Exploration of click reaction for the synthesis of modified nucleosides as chitin synthase inhibitors” (Bioorg Med Chem, 2009).
Values after ≈ are worked out from the molar mass of the structure shown.

How the values were obtained:
Benjaminiella poitrasii [1] = assay: Antifungal activity against Benjaminiella poitrasii assessed as inhibition of germ tube formation at 4 ug/mL after 6 hrs; assay type: functional
Candida albicans = assay: Antifungal activity against Candida albicans by broth microdilution test; assay type: functional, organism-based
Benjaminiella poitrasii [2] = assay: Inhibition of chitin synthase activity in Benjaminiella poitrasii at 4 ug/mL
Fusarium oxysporum = assay: Antifungal activity against Fusarium oxysporum by broth microdilution test; assay type: functional, organism-based
Benjaminiella poitrasii [3] = assay: Antifungal activity against Benjaminiella poitrasii at 4 ug/mL by standard broth microdilution technique; assay type: functional
Cryptococcus neoformans = assay: Antifungal activity against Cryptococcus neoformans by broth microdilution test; assay type: functional, organism-based

SMILES	inhibition at 4 µg/mL (Benjaminiella poitrasii [1])	IC50 (Candida albicans)	MIC90 (Candida albicans)	inhibition (Benjaminiella poitrasii [2])	IC50 (Fusarium oxysporum)	MIC90 (Fusarium oxysporum)	inhibition at 4 µg/mL (Benjaminiella poitrasii [3])	IC50 (Cryptococcus neoformans)	MIC90 (Cryptococcus neoformans)
CC1(C)O[C@@H]2[C@H](O1)[C@@H](Cn1cc(COC(=O)Cc3ccc(Cl)cc3Cl)nn1)O[C@H]2n1ccc(=O)[nH]c1=O	57.1%	32 µg/mL (≈ 57.9 µM)	> 128 µg/mL	67%	> 128 µg/mL	> 128 µg/mL	38.6%	32 µg/mL (≈ 57.9 µM)	64 µg/mL (≈ 116 µM)
CC1(C)O[C@@H]2[C@H](O1)[C@@H](Cn1cc(COc3ccccc3)nn1)O[C@H]2n1ccc(=O)[nH]c1=O	45.1%	68 µg/mL (≈ 154 µM)	> 128 µg/mL	77.2%	128 µg/mL (≈ 290 µM)	> 128 µg/mL	21.5%	4 µg/mL (≈ 9.06 µM)	8 µg/mL (≈ 18.1 µM)
CC1(C)O[C@@H]2[C@H](O1)[C@@H](Cn1cc(COC(=O)COc3ccccc3)nn1)O[C@H]2n1ccc(=O)[nH]c1=O	52.5%	64 µg/mL (≈ 128 µM)	> 128 µg/mL	74%	16 µg/mL (≈ 32 µM)	33 µg/mL (≈ 66.1 µM)	56.2%	128 µg/mL (≈ 256 µM)	> 128 µg/mL
Cc1cccc(OCc2cn(C[C@H]3O[C@@H](n4ccc(=O)[nH]c4=O)[C@@H]4OC(C)(C)O[C@@H]43)nn2)c1	69.2%	34 µg/mL (≈ 74.6 µM)	128 µg/mL (≈ 281 µM)	82.1%	32 µg/mL (≈ 70.3 µM)	64 µg/mL (≈ 141 µM)	34.4%	8 µg/mL (≈ 17.6 µM)	64 µg/mL (≈ 141 µM)
CC1(C)O[C@@H]2[C@H](O1)[C@@H](Cn1cc(COC(=O)C(=O)c3ccccc3)nn1)O[C@H]2n1ccc(=O)[nH]c1=O	72%	> 128 µg/mL	> 128 µg/mL	80%	55 µg/mL (≈ 111 µM)	106 µg/mL (≈ 213 µM)	51.5%	16 µg/mL (≈ 32.2 µM)	> 128 µg/mL
Cc1ccccc1CC(=O)OCc1cn(C[C@H]2O[C@@H](n3ccc(=O)[nH]c3=O)[C@@H]3OC(C)(C)O[C@@H]32)nn1	67.2%	18 µg/mL (≈ 36.2 µM)	32 µg/mL (≈ 64.3 µM)	36.4%	64 µg/mL (≈ 129 µM)	> 128 µg/mL	27.3%	32 µg/mL (≈ 64.3 µM)	64 µg/mL (≈ 129 µM)
COc1ccc(OCc2cn(C[C@H]3O[C@@H](n4ccc(=O)[nH]c4=O)[C@@H]4OC(C)(C)O[C@@H]43)nn2)cc1	71.4%	16 µg/mL (≈ 33.9 µM)	24 µg/mL (≈ 50.9 µM)	68.5%	70 µg/mL (≈ 148 µM)	124 µg/mL (≈ 263 µM)	29.3%	35 µg/mL (≈ 74.2 µM)	49 µg/mL (≈ 104 µM)
CC1(C)O[C@@H]2[C@H](O1)[C@@H](Cn1cc(COc3ccc(Cl)cc3)nn1)O[C@H]2n1ccc(=O)[nH]c1=O	58.1%	18 µg/mL (≈ 37.8 µM)	32 µg/mL (≈ 67.2 µM)	95.1%	16 µg/mL (≈ 33.6 µM)	32 µg/mL (≈ 67.2 µM)	34.6%	30 µg/mL (≈ 63 µM)	57 µg/mL (≈ 120 µM)
CC1(C)O[C@@H]2[C@H](O1)[C@@H](Cn1cc(COc3cccc4ccccc34)nn1)O[C@H]2n1ccc(=O)[nH]c1=O	72.7%	34 µg/mL (≈ 69.2 µM)	> 128 µg/mL	76.9%	32 µg/mL (≈ 65.1 µM)	64 µg/mL (≈ 130 µM)	32.4%	32 µg/mL (≈ 65.1 µM)	64 µg/mL (≈ 130 µM)
C[C@@H]1[C@H](O)[C@@H](C)/C=C/C=C/C=C/C=C/C=C/C=C/C=C/[C@H](O[C@@H]2O[C@H](C)[C@@H](O)[C@H](N)[C@@H]2O)C[C@@H]2O[C@](O)(C[C@@H](O)C[C@@H](O)[C@H](O)CC[C@@H](O)C[C@@H](O)CC(=O)O[C@H]1C)C[C@H](O)[C@H]2C(=O)O [AMPHOTERICIN B]			2 µg/mL (≈ 2.16 µM)			16 µg/mL (≈ 17.3 µM)			16 µg/mL (≈ 17.3 µM)
CC1(C)O[C@@H]2[C@H](O1)[C@@H](Cn1cc(COc3ccc([N+](=O)[O-])cc3)nn1)O[C@H]2n1ccc(=O)[nH]c1=O	78.2%	> 128 µg/mL	> 128 µg/mL	77.8%	32 µg/mL (≈ 65.8 µM)	64 µg/mL (≈ 132 µM)	17.4%	14 µg/mL (≈ 28.8 µM)	32 µg/mL (≈ 65.8 µM)
OC(Cn1cncn1)(Cn1cncn1)c1ccc(F)cc1F [FLUCONAZOLE]		14 µg/mL (≈ 45.7 µM)	32 µg/mL (≈ 104 µM)			8 µg/mL (≈ 26.1 µM)			32 µg/mL (≈ 104 µM)
C[C@@H]([C@H](N)C(=O)N[C@H](C(=O)O)[C@H]1O[C@@H](n2ccc(=O)[nH]c2=O)[C@H](O)[C@@H]1O)[C@H](O)c1ccc(O)cn1 [NIKKOMYCIN]	> 95%	32 µg/mL (≈ 64.6 µM)	64 µg/mL (≈ 129 µM)	96.6%	6 µg/mL (≈ 12.1 µM)	8 µg/mL (≈ 16.1 µM)	45.5%	16 µg/mL (≈ 32.3 µM)	30 µg/mL (≈ 60.6 µM)
CC1(C)O[C@@H]2[C@H](O1)[C@@H](Cn1cc(COC(=O)Cc3ccccc3)nn1)O[C@H]2n1ccc(=O)[nH]c1=O	75%	18 µg/mL (≈ 37.2 µM)	32 µg/mL (≈ 66.2 µM)	71%	16 µg/mL (≈ 33.1 µM)	32 µg/mL (≈ 66.2 µM)	31.9%	18 µg/mL (≈ 37.2 µM)	31 µg/mL (≈ 64.1 µM)
CC1(C)O[C@@H]2[C@H](O1)[C@@H](Cn1cc(COC(=O)Cc3ccc(O)cc3)nn1)O[C@H]2n1ccc(=O)[nH]c1=O	61.5%	> 128 µg/mL	> 128 µg/mL	73.4%	35 µg/mL (≈ 70.1 µM)	57 µg/mL (≈ 114 µM)	28.2%	128 µg/mL (≈ 256 µM)	> 128 µg/mL
CC1(C)O[C@@H]2[C@H](O1)[C@@H](Cn1cc(COC(=O)CCl)nn1)O[C@H]2n1ccc(=O)[nH]c1=O	60%	32 µg/mL (≈ 72.4 µM)	66 µg/mL (≈ 149 µM)	75.7%	8 µg/mL (≈ 18.1 µM)	16 µg/mL (≈ 36.2 µM)	30.2%	125 µg/mL (≈ 283 µM)	> 128 µg/mL
CC1(C)O[C@@H]2[C@H](O1)[C@@H](Cn1cc(COc3ccc(F)cc3)nn1)O[C@H]2n1ccc(=O)[nH]c1=O	64.7%	9 µg/mL (≈ 19.6 µM)	> 128 µg/mL	84.1%	128 µg/mL (≈ 279 µM)	> 128 µg/mL	9.43%	64 µg/mL (≈ 139 µM)	128 µg/mL (≈ 279 µM)
